Assays:
[1] = Sensory evaluation of sweetness intensity in sucrose-containing cafe au lait (Experimental Examples 6-10); conditions: added alone, 3.0 points or more
Method: The starting materials were mixed according to the blending rate in Table 6 to prepare a cafe au lait containing sucrose (hereinafter referred to as “negative control cafe au lait”).
A sensory evaluation of the presence or absence of sweetness intensity enhancement was performed for each sample by a panel of four experts according to the following evaluation criteria.
(§1) Sweetness intensity was evaluated by 0.0 to 10.0 point based on the following reference samples (negative control (hereinafter referred to as NC) (0.0 point); reference 1 (hereinafter referred to as R1) (5.0 points); reference 2 (hereinafter referred to as R2) (10.0 points)). The average score (rounded to two decimal places) of each expert panelist was calculated. An average score of 3.0 points or more was considered to be functional. • NC (0.0 point): cafe au lait prepared by mixing starting materials at the blending rate in Table 6 (i.e., negative control cafe au lait). • R1 (5.0 points): drink with 0.15 g of sucrose added per 99.85 g of NC. • R2 (10.0 points): drink with 0.30 g of sucrose added per 99.70 g of NC.
A sensory evaluation of sweetness intensity was performed for each sample by a panel of four experts according to the same evaluation criteria as in Experimental Example 6.
A sensory evaluation of the presence or absence of sweetness intensity enhancement was performed for each sample by a panel of four experts according to the same evaluation criteria as in Experimental Example 6.

[2] = Sensory evaluation of orange flavor intensity in orange drink (Experimental Example 13); conditions: added alone, 3.0 points or more
Method: A negative control orange drink was prepared by the same method as in Experimental Example 1.
A sensory evaluation of orange flavor intensity was performed for each sample by a panel of three experts according to the following evaluation criteria.
Orange flavor intensity was evaluated by 0.0 to 10.0 point based on the following reference samples (negative control (hereinafter referred to as NC) (0.0 point); reference 1 (hereinafter referred to as R1) (5.0 points); reference 2 (hereinafter referred to as R2) (10.0 points)). The average score (rounded to two decimal places) of each expert panelist was calculated. An average score of 3.0 points or more was considered to be functional. • NC (0.0 point): orange drink (trade name: Bireley's Orange) diluted 1.2 times with filtered water (i.e., negative control orange drink). • R1 (5.0 points): with 0.46 g of sucrose added per 99.54 g of NC. • R2 (10.0 points): with 0.92 g of sucrose added per 99.08 g of NC.

[3] = Sensory evaluation of sweetness intensity in yogurt drink (Experimental Example 14); conditions: added alone, 3.0 points or more
Method: (§2) Yogurt drink (product name: 7 Premium Yogurt Drink, SEVEN-ELEVEN JAPAN CO., LTD.) was diluted 1.2 times with filtered water to prepare negative control yogurt drink.
(§3) When the carbohydrate content of 7 Premium Yogurt Drink is calculated as the total sucrose content, the negative control yogurt drink contains 10.75 g of sucrose per 100 g.
(§4) A sensory evaluation of sweetness intensity and yogurt flavor intensity was performed for each sample by a panel of three experts according to the following evaluation criteria.
(§5) Sweetness intensity and yogurt flavor intensity were each evaluated by 0.0 to 10.0 point based on the following reference samples (negative control (hereinafter referred to as NC) (0.0 point); reference 1 (hereinafter referred to as R1) (5.0 points); reference 2 (hereinafter referred to as R2) (10.0 points)). The average score (rounded to two decimal places) of each expert panelist was calculated. An average score of 3.0 points or more was considered to be functional. • NC (0.0 point): yogurt drink (product name: 7 Premium Yogurt Drink, SEVEN-ELEVEN JAPAN CO., LTD.) diluted 1.2 times with filtered water. • R1 (5.0 points): with 0.54 g of sucrose added per 99.46 g of NC. • R2 (10.0 points): with 1.08 g of sucrose added per 98.92 g of NC.

[4] = Sensory evaluation of yogurt flavor intensity in yogurt drink (Experimental Example 14); conditions: added alone, 3.0 points or more
Method: as §2, §3, §4, §5

[5] = Sensory evaluation of sweetness intensity in black tea au lait (Experimental Example 15); conditions: added alone; for concentration at which a sweetness-enhancing effect was confirmed: 3.0 points or more
Method: Instant black tea au lait powder (product name: Blendy (registered trademark) Stick Black Tea Au Lait (Ajinomoto AGF, Inc.)) was prepared according to the instructions, and then diluted 1.2 times with filtered water to prepare negative control black tea au lait.
When the carbohydrate content of Blendy (registered trademark) Stick Black Tea Au Lait is calculated as the total sucrose content, the negative control black tea au lait contains 5.2 g of sucrose per 100 g.
A sensory evaluation of sweetness intensity and black tea au lait flavor intensity was performed for each sample by a panel of three experts according to the following evaluation criteria.
Sweetness intensity and black tea au lait flavor intensity were each evaluated by 0.0 to 10.0 point based on the following reference samples (negative control (hereinafter referred to as NC) (0.0 point); reference 1 (hereinafter referred to as R1) (5.0 points); reference 2 (hereinafter referred to as R2) (10.0 points)). The average score (rounded to two decimal places) of each expert panelist was calculated. An average score of 3.0 points or more was considered to be functional. • NC (0.0 point): black tea au lait (product name: Black Tea Au Lait, Ajinomoto AGF, Inc.) prepared according to the instructions, and then diluted 1.2 times with filtered water (i.e., negative control black tea au lait). • R1 (5.0 points): with 0.26 g of sugar added per 99.74 g of NC. • R2 (10.0 points): with 0.52 g of sugar added per 99.48 g of NC.

[6] = Sensory evaluation of cafe au lait flavor intensity in sucrose-containing cafe au lait (Experimental Example 16); conditions: added alone, 3.0 points or more
Method: Negative control cafe au lait was prepared by the same method as in Experimental Example 6.
A sensory evaluation of the presence or absence of cafe au lait flavor intensity enhancement was performed for each sample by a panel of four experts according to the following evaluation criteria.
as §1, with “Cafe au lait flavor” for “Sweetness”, “6 in Experimental Example 6” for “6”, “0.3” for “0.30”

SMILES: CC(C)CCC(=O)O [4-methylpentanoic acid]
- concentration at which a sweetness-enhancing effect was confirmed [1]: ≥ 0.1 ppb
- concentration at which an orange flavor-enhancing effect was confirmed [2]: ≥ 10 ppb
- concentration at which a sweetness-enhancing effect was confirmed [3]: ≥ 1 ppb
- concentration at which a yogurt flavor-enhancing effect was confirmed [4]: ≥ 0.1 ppb
- concentration at which a sweetness-enhancing effect was confirmed [5]: ≥ 100 ppb
- concentration at which a cafe au lait flavor-enhancing effect was confirmed [6]: ≥ 1 ppb

SMILES: CCCCCCCCCC(=O)O [decanoic acid]
- concentration at which a sweetness-enhancing effect was confirmed [1]: ≥ 1 ppb
- concentration at which an orange flavor-enhancing effect was confirmed [2]: ≥ 0.01 ppb
- concentration at which a sweetness-enhancing effect was confirmed [3]: ≥ 0.1 ppb
- concentration at which a yogurt flavor-enhancing effect was confirmed [4]: ≥ 0.01 ppb
- sweetness-enhancing effect (in words) ([5]; 0.0001-1000 ppb): concentration-dependent sweetness-enhancing effect
- concentration at which a cafe au lait flavor-enhancing effect was confirmed [6]: ≥ 0.01 ppb

SMILES: CC1=C(O)C(=O)CC1 [cyclotene]
- concentration at which a sweetness-enhancing effect was confirmed [1]: ≥ 0.1 ppb
- concentration at which an orange flavor-enhancing effect was confirmed [2]: ≥ 10 ppb
- concentration at which a sweetness-enhancing effect was confirmed [3]: ≥ 0.01 ppb
- concentration at which a yogurt flavor-enhancing effect was confirmed [4]: ≥ 0.01 ppb
- concentration at which a sweetness-enhancing effect was confirmed [5]: ≥ 1 ppb
- concentration at which a cafe au lait flavor-enhancing effect was confirmed [6]: ≥ 0.1 ppb

From patent publication US20250302080A1, “SWEETNESS AND/OR FLAVOR ENHANCER” (AJINOMOTO CO., INC., priority 2022, published 2025)
